Results reported in US20040048350A1 (priority 2001, published 2004).
pKi: −log10 of the molar value.

Key:
[1] = target: E. coli RNAP holoenzyme (Escherichia coli, UniProt P0A8V2); assay: Transcription assay, T7A1 promoter template, rifampicin inhibition of E. coli RNAP holoenzyme; type: biochemical; conditions: CpA primer, 37° C., read-out: Ki (estimated from the rifampicin concentration where the production of long transcripts was inhibited by 50%)
Text: (§1) FIG. 2a depicts autoradiographs showing the radioactive RNA produced by Taq (lanes 1-7) and E. coli (lanes 8-13) RNAP holoenzymes transcribing a template containing the T7 A1 promoter and the tR2 terminator, analyzed on a 15% polyacrylamide gel and quantitated by phosphorimagery. In the absence of rifampicin (lanes 1 and 8), the major RNA products from each RNAP correspond to a trimeric abortive product (CpApU), a 105 nucleotide terminated transcript (Term), and a 127 nucleotide runoff transcript (Run off). Lanes 2-7 and 9-13 show the effects of increasing concentrations of rifampicin. […] Rif-nucleotide compounds (Rif-(CH2)n-Ap) with different linker lengths, n (indicated above each lane) were bound to RNAP, then extended in a specific transcription reaction with α-[^32P]UTP by the RNAP catalytic activity. The products were analyzed on a 23% polyacrylamide gel, visualized by autoradiography, and quantitated by phosphorimagery.
(§2) The transcription assay comparing rifampicin inhibition of E.coli and Taq RNAPs (FIG. 2a) was performed as previously described [Nudler et al., Science 265:793-796 (1994)]. Briefly, 0.1 pmol of purified Taq core RNAP [Zhang et al., Cell 98:811-824 (1999); U.S. Ser. No. 09/396,651, Filed Sep. […] Radioactive RNA products were analyzed on a 15% polyacrylamide sequencing gel.

[2] = target: T1, Taq RNAP holoenzyme (Thermus aquaticus, UniProt Q9KWU7); assay: Transcription assay, T7A1 promoter template, rifampicin inhibition of Taq RNAP holoenzyme; type: biochemical; conditions: CpA primer, 37° C., read-out: Ki (estimated from the rifampicin concentration where the production of long transcripts was inhibited by 50%)
T1 construct: Taq core RNAP purified from Taq cells; made in house; host or cells: core: purified natively from Thermus aquaticus cells; σA: recombinant in E. coli
Text: as §1, §2

E. coli RNAP holoenzyme, sequence (P0A8V2 whole entry): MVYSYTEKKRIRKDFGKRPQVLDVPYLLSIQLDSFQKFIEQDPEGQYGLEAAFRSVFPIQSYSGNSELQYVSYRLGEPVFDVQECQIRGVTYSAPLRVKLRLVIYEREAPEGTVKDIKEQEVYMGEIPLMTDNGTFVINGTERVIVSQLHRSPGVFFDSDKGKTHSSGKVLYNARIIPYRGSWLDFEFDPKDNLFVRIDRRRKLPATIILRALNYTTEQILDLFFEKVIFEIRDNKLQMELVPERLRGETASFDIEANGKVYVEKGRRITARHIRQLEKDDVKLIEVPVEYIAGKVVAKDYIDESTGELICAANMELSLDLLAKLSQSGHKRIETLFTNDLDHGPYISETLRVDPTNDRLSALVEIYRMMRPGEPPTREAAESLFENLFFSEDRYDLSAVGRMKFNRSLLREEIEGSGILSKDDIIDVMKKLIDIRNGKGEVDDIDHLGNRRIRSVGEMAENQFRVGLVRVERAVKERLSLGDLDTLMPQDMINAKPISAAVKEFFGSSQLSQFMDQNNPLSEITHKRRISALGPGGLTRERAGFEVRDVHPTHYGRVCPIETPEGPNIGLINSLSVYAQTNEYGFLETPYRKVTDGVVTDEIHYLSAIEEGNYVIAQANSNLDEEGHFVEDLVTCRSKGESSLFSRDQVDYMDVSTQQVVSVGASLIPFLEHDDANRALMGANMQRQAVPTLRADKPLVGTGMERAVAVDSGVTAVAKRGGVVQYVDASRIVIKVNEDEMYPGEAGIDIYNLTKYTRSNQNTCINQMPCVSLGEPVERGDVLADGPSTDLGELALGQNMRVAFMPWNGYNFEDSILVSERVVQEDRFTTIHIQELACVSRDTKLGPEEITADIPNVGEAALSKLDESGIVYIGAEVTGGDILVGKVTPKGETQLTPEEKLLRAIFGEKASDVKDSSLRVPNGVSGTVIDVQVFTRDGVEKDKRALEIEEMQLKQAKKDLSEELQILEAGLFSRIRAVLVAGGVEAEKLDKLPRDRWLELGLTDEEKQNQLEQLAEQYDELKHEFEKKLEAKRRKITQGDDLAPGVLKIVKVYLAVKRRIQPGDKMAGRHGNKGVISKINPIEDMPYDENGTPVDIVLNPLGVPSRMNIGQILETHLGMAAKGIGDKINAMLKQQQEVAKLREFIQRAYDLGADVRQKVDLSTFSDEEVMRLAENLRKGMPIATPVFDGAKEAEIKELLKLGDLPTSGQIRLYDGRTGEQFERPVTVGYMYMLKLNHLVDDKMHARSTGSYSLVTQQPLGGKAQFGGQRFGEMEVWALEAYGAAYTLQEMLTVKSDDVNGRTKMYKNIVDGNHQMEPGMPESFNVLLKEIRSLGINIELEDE
E. coli RNAP holoenzyme, sequence (P0A8T7 whole entry partner): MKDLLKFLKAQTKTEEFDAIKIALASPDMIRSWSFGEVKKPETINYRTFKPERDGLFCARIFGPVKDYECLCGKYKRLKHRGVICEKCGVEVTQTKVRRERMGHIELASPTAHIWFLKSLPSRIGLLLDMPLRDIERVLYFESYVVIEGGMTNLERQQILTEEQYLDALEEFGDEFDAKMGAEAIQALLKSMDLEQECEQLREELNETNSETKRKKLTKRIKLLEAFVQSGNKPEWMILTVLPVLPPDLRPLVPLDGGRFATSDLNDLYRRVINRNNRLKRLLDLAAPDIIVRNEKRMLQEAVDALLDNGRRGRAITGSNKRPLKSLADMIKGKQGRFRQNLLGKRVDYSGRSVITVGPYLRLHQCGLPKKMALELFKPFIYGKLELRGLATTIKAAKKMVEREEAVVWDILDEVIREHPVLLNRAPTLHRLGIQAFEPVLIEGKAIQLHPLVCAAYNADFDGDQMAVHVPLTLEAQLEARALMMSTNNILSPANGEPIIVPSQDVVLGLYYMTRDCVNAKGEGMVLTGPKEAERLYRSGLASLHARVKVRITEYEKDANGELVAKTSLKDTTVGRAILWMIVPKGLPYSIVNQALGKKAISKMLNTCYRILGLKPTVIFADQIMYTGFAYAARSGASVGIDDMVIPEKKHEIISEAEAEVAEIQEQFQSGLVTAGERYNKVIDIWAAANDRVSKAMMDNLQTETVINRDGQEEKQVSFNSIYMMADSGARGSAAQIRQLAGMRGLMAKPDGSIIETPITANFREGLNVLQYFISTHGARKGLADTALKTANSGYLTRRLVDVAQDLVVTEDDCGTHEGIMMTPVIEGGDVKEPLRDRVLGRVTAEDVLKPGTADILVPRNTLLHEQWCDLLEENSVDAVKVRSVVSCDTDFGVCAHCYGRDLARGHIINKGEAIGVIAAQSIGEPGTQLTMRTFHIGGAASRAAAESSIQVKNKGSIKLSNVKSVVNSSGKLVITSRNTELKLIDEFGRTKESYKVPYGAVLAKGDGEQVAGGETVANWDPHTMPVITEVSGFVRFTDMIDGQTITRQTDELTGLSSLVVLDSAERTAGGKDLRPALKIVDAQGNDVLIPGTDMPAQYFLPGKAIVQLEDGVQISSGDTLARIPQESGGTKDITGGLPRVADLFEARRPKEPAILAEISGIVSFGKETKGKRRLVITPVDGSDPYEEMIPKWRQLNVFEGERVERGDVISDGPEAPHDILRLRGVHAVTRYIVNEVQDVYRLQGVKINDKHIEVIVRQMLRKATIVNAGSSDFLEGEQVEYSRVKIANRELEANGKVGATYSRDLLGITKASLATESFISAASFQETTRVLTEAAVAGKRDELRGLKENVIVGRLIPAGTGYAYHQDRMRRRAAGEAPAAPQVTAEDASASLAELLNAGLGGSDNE
E. coli RNAP holoenzyme, sequence (P0A7Z4 whole entry partner): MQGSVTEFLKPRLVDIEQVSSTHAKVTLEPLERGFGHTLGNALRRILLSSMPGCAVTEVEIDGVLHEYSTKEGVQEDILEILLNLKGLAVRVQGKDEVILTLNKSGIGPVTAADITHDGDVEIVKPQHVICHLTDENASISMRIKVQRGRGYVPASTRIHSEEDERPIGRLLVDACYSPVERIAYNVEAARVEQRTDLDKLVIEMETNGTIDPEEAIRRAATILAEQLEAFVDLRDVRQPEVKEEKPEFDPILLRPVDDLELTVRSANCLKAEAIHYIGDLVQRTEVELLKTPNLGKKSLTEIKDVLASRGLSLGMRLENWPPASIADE
E. coli RNAP holoenzyme, sequence (P0A800 whole entry partner): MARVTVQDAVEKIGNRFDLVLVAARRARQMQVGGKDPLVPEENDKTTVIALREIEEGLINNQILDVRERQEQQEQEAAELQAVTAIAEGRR
E. coli RNAP holoenzyme, sequence (P00579 whole entry partner): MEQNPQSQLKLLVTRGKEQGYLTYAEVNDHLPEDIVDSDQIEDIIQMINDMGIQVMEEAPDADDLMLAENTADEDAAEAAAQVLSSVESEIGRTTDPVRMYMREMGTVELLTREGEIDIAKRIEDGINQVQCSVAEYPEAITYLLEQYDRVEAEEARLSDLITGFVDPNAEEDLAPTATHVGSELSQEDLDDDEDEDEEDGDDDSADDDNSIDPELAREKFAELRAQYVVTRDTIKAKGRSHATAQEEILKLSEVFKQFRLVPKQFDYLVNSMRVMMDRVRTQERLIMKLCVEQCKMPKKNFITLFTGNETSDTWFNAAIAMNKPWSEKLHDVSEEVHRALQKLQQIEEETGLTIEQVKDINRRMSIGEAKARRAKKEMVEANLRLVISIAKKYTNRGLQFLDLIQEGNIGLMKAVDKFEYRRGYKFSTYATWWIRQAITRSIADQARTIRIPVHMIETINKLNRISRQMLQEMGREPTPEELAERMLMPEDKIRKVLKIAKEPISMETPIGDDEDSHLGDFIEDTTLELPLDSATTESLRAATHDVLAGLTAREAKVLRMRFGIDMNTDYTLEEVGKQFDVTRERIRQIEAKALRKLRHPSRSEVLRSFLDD

With `CO[C@H]1/C=C/O[C@@]2(C)Oc3c(C)c(O)c4c(O)c(c(/C=N/N5CCN(C)CC5)c(O)c4c3C2=O)NC(=O)/C(C)=C\C=C\[C@H](C)[C@H](O)[C@@H](C)[C@@H](O)[C@@H](C)[C@H](OC(C)=O)[C@@H]1C` [rifampicin] the pKi [1] was ~7.00 and the pKi [2] was ~5.00.
